# Measurements from patent publication US11873298B2, “Compounds and uses thereof” (JANSSEN PHARMACEUTICA NV, priority 2017, dated 2024).
# pIC50: −log10 of the molar value. Values joined by “and” are separate entries in the source; they are usually repeats but may differ in a detail not shown here. Equal values may be shown once.
# Columns and labels:
# Format in all cases: cell-based
# SCD1 = target: T1, SCD1 (Homo sapiens, UniProt O00767); assay: Growth inhibition of humanized yeast strain expressing SCD1 as sole desaturase; details: humanized yeast strain expressing SCD1
# T1 construct: host or cells: S. cerevisiae ole1Δ strain (W303 pdr1Δ pdr3Δ background), plasmid pRS316 with TDH3 promoter and CYC1 terminator
# T1 sequence (O00767 1-359): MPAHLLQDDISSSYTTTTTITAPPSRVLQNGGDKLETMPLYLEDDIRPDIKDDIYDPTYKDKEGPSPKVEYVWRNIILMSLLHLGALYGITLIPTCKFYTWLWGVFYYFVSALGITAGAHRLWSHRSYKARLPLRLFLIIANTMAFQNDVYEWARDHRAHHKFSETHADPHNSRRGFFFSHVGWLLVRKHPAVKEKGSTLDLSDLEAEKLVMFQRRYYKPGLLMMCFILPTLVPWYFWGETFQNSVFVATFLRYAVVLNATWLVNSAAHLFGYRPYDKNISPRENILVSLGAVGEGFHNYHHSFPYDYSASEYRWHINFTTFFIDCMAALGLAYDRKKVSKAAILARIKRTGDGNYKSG
# Method in brief: (§1)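 OD600 growth read-out. ole1Δ yeast, pdr1Δ pdr3Δ, with Ole1/SCD1/SCD5 on a plasmid; SX-Ura media throughout; 2× cell density 0.02 in CSM-Galactose; DMSO compound dilutions; humidified 30° C.; Ole1 stopped at 24 h, SCD1/SCD5 at 40 h.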
# SCD5 = target: T2, SCD5 (Homo sapiens, UniProt Q86SK9); assay: Growth inhibition of humanized yeast strain expressing SCD5 as sole desaturase; details: humanized yeast strain expressing SCD5
# T2 construct: host or cells: S. cerevisiae ole1Δ strain (W303 pdr1Δ pdr3Δ background), plasmid pRS316 with TDH3 promoter and CYC1 terminator
# T2 sequence (Q86SK9 1-330): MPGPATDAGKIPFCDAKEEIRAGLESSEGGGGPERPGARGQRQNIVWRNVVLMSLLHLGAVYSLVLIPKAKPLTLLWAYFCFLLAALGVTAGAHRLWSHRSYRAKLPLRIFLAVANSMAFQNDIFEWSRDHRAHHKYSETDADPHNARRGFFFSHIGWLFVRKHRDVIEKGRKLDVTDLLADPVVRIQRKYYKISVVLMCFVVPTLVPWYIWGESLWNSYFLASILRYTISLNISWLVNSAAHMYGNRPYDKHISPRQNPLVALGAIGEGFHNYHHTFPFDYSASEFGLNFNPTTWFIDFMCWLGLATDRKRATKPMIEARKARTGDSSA
# Method in brief: as §1
# Ole1 = target: T3, Ole1 (Saccharomyces cerevisiae, UniProt P21147); assay: Growth inhibition of yeast strain expressing Ole1 as sole desaturase; details: yeast strain expressing Ole1 as sole desaturase
# T3 construct: expressed in transfected cells; host or cells: S. cerevisiae ole1Δ strain (W303 pdr1Δ pdr3Δ background), plasmid pRS316 with TDH3 promoter and CYC1 terminator
# T3 sequence (P21147 1-510): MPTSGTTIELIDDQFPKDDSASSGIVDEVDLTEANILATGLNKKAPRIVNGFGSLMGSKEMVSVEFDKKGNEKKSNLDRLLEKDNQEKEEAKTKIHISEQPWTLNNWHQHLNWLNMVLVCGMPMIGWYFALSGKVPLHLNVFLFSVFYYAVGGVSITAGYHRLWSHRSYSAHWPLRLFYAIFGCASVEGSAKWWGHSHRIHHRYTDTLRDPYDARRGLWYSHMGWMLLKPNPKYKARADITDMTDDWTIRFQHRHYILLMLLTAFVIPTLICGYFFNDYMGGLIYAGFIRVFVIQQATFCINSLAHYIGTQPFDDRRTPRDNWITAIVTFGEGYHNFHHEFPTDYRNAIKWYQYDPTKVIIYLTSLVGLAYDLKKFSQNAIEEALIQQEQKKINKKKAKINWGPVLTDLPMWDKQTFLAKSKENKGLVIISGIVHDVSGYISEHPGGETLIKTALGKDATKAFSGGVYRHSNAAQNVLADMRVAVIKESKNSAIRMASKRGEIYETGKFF
# Method in brief: as §1
SMILES,SCD1 % Max Inhibition (SCD1),pIC50 (SCD5),SCD5 % Max Inhibition (SCD5),pIC50 (Ole1),OLE1 % Max Inhibition (Ole1),pIC50 (SCD1)
Cc1nn(C)c2cc(-c3noc(C4CCN(C(=O)CC(C)(C)C)CC4)n3)ccc12 [Compound 263],18.81%,< 4.35,7.20%,< 4.35,8.71%,–
Cc1nn(C)c2cc(-c3noc(C4CCN(C(=O)CC5CC5)CC4)n3)ccc12 [Compound 264],56.37%,< 4.35,7.97%,< 4.35,15.52%,4.39
CC(C)n1ncc2ccc(-c3noc(C4CCN(C(=O)OC(C)(C)C)CC4)n3)cc21 [Compound 265],76.74% and 54.38%,< 4.35,10.96% and 3.97%,< 4.35,103.04% and 83.99%,≤ 4.35
Cc1nn(C)c2cc(-c3noc(C4CCN(C(=O)COc5ccccc5)CC4)n3)ccc12 [Compound 266],12.42%,< 4.35,9.90%,< 4.35,7.17%,–
Cc1nn(C)c2cc(-c3noc(C4CCN(C(=O)CNC(=O)c5ccc(C#N)cc5)CC4)n3)ccc12 [Compound 267],58.58%,< 4.35,11.33%,< 4.35,4.64%,4.42
Cc1nn(C)c2cc(-c3noc(C4CCN(C(=O)CNC(=O)c5cccc(C#N)c5)CC4)n3)ccc12 [Compound 268],79.03% and 65%,< 4.35,8.68% and 2.67%,< 4.35,4.39% and 0.14%,≤ 4.35
Cc1nn(C)c2cc(-c3noc(C4CCN(C(=O)CNC(=O)c5ccc(Cl)cc5)CC4)n3)ccc12 [Compound 269],38.78% and 25.11%,< 4.35,8.38% and 5.30%,< 4.35,6.62% and 4.57%,–
Cc1nn(C)c2cc(-c3noc(N4CCN(C(=O)c5cccc(F)c5)CC4)n3)ccc12 [Compound 270],82.42%,< 4.35,12.30%,4.38,63.00%,–
Cc1nn(C)c2cc(-c3noc(C4CCN(C(=O)CNC(=O)c5ccccc5C(F)(F)F)CC4)n3)ccc12 [Compound 271],67.9%,< 4.35,53.6%,< 4.35,11.7%,–
Cc1nn(C)c2cc(-c3noc(C4CCN(C(=O)Oc5ccccc5)CC4)n3)ccc12 [Compound 272],70.8%,< 4.35,51.9%,< 4.35,40.3%,–
COC(=O)N1CCC(c2nc(-c3ccc4c(C)nn(C)c4c3)no2)CC1 [Compound 273],67.9%,< 4.35,55.0%,< 4.35,78.7%,–
COc1ccc(-c2noc(C3CCN(C(=O)CNC(=O)c4ccccc4)CC3)n2)cc1OC(C)C [Compound 274],75.3%,< 4.35,67.0%,< 4.35,75.9%,–
Cc1nn(C)c2cc(-c3noc(C4CCN(C(=O)C5CC(=O)N(c6ccc(F)cn6)C5)CC4)n3)ccc12 (centres unmarked) [Compound 275],76.51%,< 4.35,78.05%,< 4.35,11.24%,< 4.35
CC(C)n1cc2ccc(-c3noc(C4CCN(C(=O)OC(C)(C)C)CC4)n3)cc2n1 [Compound 277],76.49%,< 4.35,74.99%,< 4.35,94.36%,–
Cc1nn(C)c2cc(-c3noc(N4CCN(C(=O)c5cc(F)ccc5Cl)CC4)n3)ccc12 [Compound 278],32.22%,< 4.35,10.55%,< 4.35,21.08%,–
Cc1nn(C)c2cc(-c3noc(C4CCN(S(=O)(=O)C(C)C)CC4)n3)ccc12 [Compound 279],43.86%,< 4.35,21.97%,< 4.35,83.07%,–
Cc1nn(C)c2cc(-c3noc(C4CCN(C(=O)c5ccccc5)CC4)n3)ccc12 [Compound 280],11.48%,< 4.35,8.86%,< 4.35,17.18%,–
Cc1nn(C(C)C)c2cc(-c3noc(C4CCN(C(=O)CNC(=O)c5ccccc5)CC4)n3)ccc12 [Compound 281],84.97% and 68.90%,< 4.35,18.03% and 12.39%,4.47 and < 4.35,60.23% and 32.09%,≤ 4.35
Cc1nn(C)c2cc(-c3noc(C4CCN(C(=O)NC(C)(C)C)CC4)n3)ccc12 [Compound 282],90.54%,4.54,56.23%,< 4.35,110.18%,–
Cc1nn(C)c2cc(-c3noc(C4CCN(C(=O)c5ccccc5C(F)(F)F)CC4)n3)ccc12 [Compound 283],34.91%,< 4.35,9.83%,< 4.35,24.43%,4.46
Cc1nn(C)c2cc(-c3noc(C4CCN(C(=O)c5cccc(F)c5)CC4)n3)ccc12 [Compound 284],4.81%,< 4.35,6.80%,< 4.35,12.40%,–
CC(C)c1ccc(C(=O)N2CCC(c3nc(C(=O)Nc4cnn(C)c4)no3)CC2)cc1 [Compound 285],45.62%,< 4.35,30.09%,< 4.35,105.26%,–
Cc1nn(C2CC2)c2cc(-c3noc(C4CCN(C(=O)CNC(=O)c5ccccc5)CC4)n3)ccc12 [Compound 286],13.04% and 14.44%,< 4.35,8.76% and 9.55%,< 4.35,5.18% and 4.35%,–
CC(C)c1ccc(C(=O)N2CCC(c3nc(C(=O)Nc4ccnn4C)no3)CC2)cc1 [Compound 287],72.51%,< 4.35,66.81%,< 4.35,93.89%,–
Cc1nn(C)c2cc(-c3noc(C4CCN(C(=O)c5ccccc5Cl)CC4)n3)ccc12 [Compound 288],8.71%,< 4.35,7.52%,< 4.35,7.14%,–
Cc1c2ccc(-c3noc(C4CCN(C(=O)CNC(=O)c5ccccc5)CC4)n3)cc2nn1C(C)C [Compound 289],62.01%,< 4.35,77.71%,< 4.35,45.87%,–
Cc1nn(C)c2cc(-c3noc(C4CCN(C(=O)c5ccc(C(C)C)cc5)CC4)n3)ccc12 [Compound 290],3.3%,< 4.35,8.8%,< 4.35,20.6%,–
Cc1nn(C)c2cc(-c3noc(C4CCN(C(=O)c5ccc(Cl)cc5)CC4)n3)ccc12 [Compound 291],5.0% and 0.30%,< 4.35,8.5% and 3.29%,< 4.35,–,–
